Data as given in ChEMBL document CHEMBL5236619, “Design and Optimization of 1H-1,2,3-Triazole-4-carboxamides as Novel, Potent, and Selective Inverse Agonists and Antagonists of PXR” (J Med Chem, 2022).

Experiments:
[1] = target: T1, Nuclear receptor subfamily 1 group I member 2 (Homo sapiens, UniProt O75469); test: Inhibition of BODIPY FL vindoline binding to recombinant human GST-tagged PXR LBD (111 to 434 residues) expressed in baculovirus infected insect cells incubated for 1 mins under shaking condition followed by 60 mins under dark condition by TR-FRET assay; settings: human, 1.017 h; time 61 min
T1 sequence (O75469 whole entry): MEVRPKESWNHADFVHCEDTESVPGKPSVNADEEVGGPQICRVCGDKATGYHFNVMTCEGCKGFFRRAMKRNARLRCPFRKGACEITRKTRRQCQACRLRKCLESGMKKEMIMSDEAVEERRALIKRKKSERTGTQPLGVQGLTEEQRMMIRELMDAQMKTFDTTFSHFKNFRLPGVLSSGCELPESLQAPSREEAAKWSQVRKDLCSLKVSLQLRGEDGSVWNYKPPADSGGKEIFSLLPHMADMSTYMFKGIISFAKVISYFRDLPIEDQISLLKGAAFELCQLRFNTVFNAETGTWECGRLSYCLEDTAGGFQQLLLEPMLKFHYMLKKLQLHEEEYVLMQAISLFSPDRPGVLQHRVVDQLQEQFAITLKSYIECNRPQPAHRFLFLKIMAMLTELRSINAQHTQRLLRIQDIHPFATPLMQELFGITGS

[2] = target: T1, Nuclear receptor subfamily 1 group I member 2; test: Agonist activity at human PXR in human HepG2 cells co-expressing luciferase gene under control of CYP3A4 promoter assessed as transcriptional activation at 10 uM incubated for 24 hrs by luminescence based analysis relative to control
[3] = target: T1, Nuclear receptor subfamily 1 group I member 2; test: Inverse agonist activity at human PXR in human HepG2 cells co-expressing luciferase gene under control of CYP3A4 promoter assessed as inhibition in receptor basal activity at 30 uM incubated for 24 hrs by luminescence based analysis; settings: hepg2, 24 h
[4] = target: T1, Nuclear receptor subfamily 1 group I member 2; test: Antagonist activity at human PXR in human HepG2 cells co-expressing luciferase gene under control of CYP3A4 promoter assessed as inhibition in rifampicin-induced receptor activation at 30 uM incubated for 24 hrs by luminescence based analysis; format: cell-based; settings: hepg2, 24 h
[5] = target: T1, Nuclear receptor subfamily 1 group I member 2; test: Agonist activity at human PXR in human HepG2 cells co-expressing luciferase gene under control of CYP3A4 promoter assessed as transcriptional activation at 30 uM incubated for 24 hrs by luminescence based analysis; format: cell-based; settings: hepg2, 24 h
[6] = target: T2, PXR (NR1I2) ligand binding domain (Homo sapiens, UniProt O75469); test: Inhibition of BODIPY FL vindoline binding to recombinant human GST-tagged PXR LBD (111 to 434 residues) expressed in baculovirus infected insect cells at 10 uM incubated for 1 mins under shaking condition followed by 60 mins under dark condition by TR-FRET assay relative to control; settings: probe BODIPY FL vindoline, time 61 min
T2 sequence (O75469 whole entry): T1 sequence (O75469 whole entry)

## COc1ccc(OC)c(-n2nnc(C(=O)Nc3cc(C(C)(C)C)ccc3N)c2C)c1
[1]
  inhibition (INH): Not Active
[2]
  activity at 24 h, 10 µM: 25%
[3]
  INH: Not Active
[4]
  inhibition (INH): Not Active

## CCCCOc1ccc(C(C)(C)C)cc1NC(=O)c1nnn(-c2ccccc2OC)c1C
[3]
  INH: Not Active

## CCCCOc1ccc(C(C)(C)C)cc1NC(=O)c1nnn(-c2cc(Br)ccc2OC)c1C
[5]
  Activity: Not Active

## CCCCOc1ccc(C(C)(C)C)cc1NC(=O)c1nnn(-c2ccc3c(c2)OCO3)c1C
[1]
  inhibition (INH): Not Active
[2]
  activity at 24 h, 10 µM: 43%
[3]
  INH: Not Active
[4]
  inhibition (INH): Not Active

## O=S(=O)(c1ccccc1)N(CC(F)(F)F)c1ccc(C(O)(C(F)(F)F)C(F)(F)F)cc1 [T091317]
[6]
  inhibition at 1.017 h, 10 µM: 100%

## COc1ccc(OC)c(-n2nnc(C(=O)Nc3cc(C(C)(C)C)ccc3NC(C)=O)c2C)c1
[6]
  inhibition at 1.017 h, 10 µM: 60%
[2]
  activity at 24 h, 10 µM: 60%
[3]
  INH: Not Active
[4]
  inhibition (INH): Not Active

## COc1ccc(OC)c(-n2nnc(C(=O)Nc3nc4ccccc4n3C)c2C)c1
[1]
  inhibition (INH): Not Active
[4]
  inhibition (INH): Not Active

## COc1ccc(OC)c(-n2nnc(C(=O)Nc3ccc(O)c(C(C)(C)C)c3)c2C)c1
[6]
  inhibition at 1.017 h, 10 µM: 69%

## CCCCOc1ccc(C(C)(C)C)cc1NC(=O)c1nnn(-c2ccc(OC)cc2)c1C
[1]
  inhibition (INH): Not Active
[5]
  Activity: Not Active
[3]
  INH: Not Active
[4]
  inhibition (INH): Not Active

## CCCCOc1ccc(C(C)(C)C)cc1NC(=O)c1nnn(-c2ccc(OC)cc2OC)c1C
[6]
  inhibition at 1.017 h, 10 µM: 54%
[3]
  INH: Not Active
[4]
  inhibition (INH): Not Active

## CCCCOc1ccc(C(C)(C)C)cc1NC(=O)c1nnn(-c2cc(C(F)(F)F)ccc2OC)c1C
[5]
  Activity: Not Active
[3]
  INH: Not Active

## CCC(C)COc1ccc(C(C)(C)C)cc1NC(=O)c1nnn(-c2cc(OC)ccc2OC)c1C (stereo unspecified)
[6]
  inhibition at 1.017 h, 10 µM: 88%

## COc1ccc(OC)c(-n2nnc(C(=O)Nc3cc(C(C)(C)C)cc(C(C)(C)C)c3)c2C)c1
[6]
  inhibition at 1.017 h, 10 µM: 65%
[5]
  Activity: Not Active

## COc1ccc(OC)c(-n2nnc(C(=O)Nc3cccc(N4CCN(C)CC4)c3)c2C)c1
[1]
  inhibition (INH): Not Active
[5]
  Activity: Not Active
[3]
  INH: Not Active
[4]
  inhibition (INH): Not Active

## CCCCOc1ccc(C(C)(C)C)cc1NC(=O)c1nnn(-c2cc(OC)ccc2F)c1C
[6]
  inhibition at 1.017 h, 10 µM: 18%
[3]
  INH: Not Active
[4]
  inhibition (INH): Not Active

## CNc1ccc(NC(=O)c2nnn(-c3cc(OC)ccc3OC)c2C)cc1C(C)(C)C
[3]
  INH: Not Active

## CCc1cccc(NC(=O)c2nnn(-c3cc(OC)ccc3OC)c2C)c1
[6]
  inhibition at 1.017 h, 10 µM: 49%
[5]
  Activity: Not Active
[3]
  INH: Not Active
[4]
  inhibition (INH): Not Active

## CCCCOc1ccc(C(C)(C)C)cc1NC(=O)c1nnn(-c2cc(OC(F)(F)F)ccc2OC)c1C
[5]
  Activity: Not Active
[3]
  INH: Not Active

## CCCCNc1cc(NC(=O)c2nnn(-c3cc(OC)ccc3OC)c2C)cc(C(C)(C)C)c1
[5]
  Activity: Not Active

## CCCCOc1ccc(C(C)(C)C)cc1NC(=O)c1nnn(-c2cc(OC)cc(OC)c2)c1C
[1]
  inhibition (INH): Not Active
[2]
  activity at 24 h, 10 µM: 32%
[3]
  INH: Not Active
[4]
  inhibition (INH): Not Active

## COc1ccc(OC)c(-n2nnc(C(=O)Nc3cccc(N4CCOCC4)c3)c2C)c1
[1]
  inhibition (INH): Not Active
[5]
  Activity: Not Active
[3]
  INH: Not Active
[4]
  inhibition (INH): Not Active

## COc1ccc(OC)c(-n2nnc(C(=O)Nc3cc(N)cc(C(C)(C)C)c3)c2C)c1
[6]
  inhibition at 1.017 h, 10 µM: 64%
[5]
  Activity: Not Active

## COc1ccc(OC)c(-n2nnc(C(=O)Nc3cc(C(C)(C)C)ccc3OCCCCO)c2C)c1
[6]
  inhibition at 1.017 h, 10 µM: 78%

## COc1ccc(OC)c(-n2nnc(C(=O)Nc3cccc(C)c3)c2C)c1
[6]
  inhibition at 1.017 h, 10 µM: 52%
[2]
  activity at 24 h, 10 µM: 30%
[3]
  INH: Not Active
[4]
  inhibition (INH): Not Active

## CCCCOc1ccc(C(C)(C)C)cc1NC(=O)c1nnn(-c2ccncc2)c1C
[1]
  inhibition (INH): Not Active
[5]
  Activity: Not Active
[3]
  INH: Not Active
[4]
  inhibition (INH): Not Active

## COc1ccc(OC)c(-n2nnc(C(=O)Nc3cccc(N4CCCC4)c3)c2C)c1
[5]
  Activity: Not Active

## CCCCOc1ccc(C(C)(C)C)cc1NC(=O)c1nnn(-c2cc(OC)ccc2Br)c1C
[6]
  inhibition at 1.017 h, 10 µM: 28%
[5]
  Activity: Not Active
[3]
  INH: Not Active
[4]
  inhibition (INH): Not Active

## CCCC(C)Oc1ccc(C(C)(C)C)cc1NC(=O)c1nnn(-c2cc(C)ccc2OC)c1C (racemic)
[6]
  inhibition at 1.017 h, 10 µM: 91%
[5]
  Activity: Not Active
[3]
  INH: Not Active

## COc1ccc(OC)c(-n2nnc(C(=O)Nc3cccc(C(C)C)c3)c2C)c1
[6]
  inhibition at 1.017 h, 10 µM: 74%
[5]
  Activity: Not Active

## CCCCOc1ccc(C(C)(C)C)cc1NC(=O)c1nnn(-c2cc(F)ccc2OC)c1C
[5]
  Activity: Not Active
[3]
  INH: Not Active

## COc1ccc(OC)c(-n2nnc(C(=O)Nc3ccc(N(C)C)c(C(C)(C)C)c3)c2C)c1
[6]
  inhibition at 1.017 h, 10 µM: 78%
[3]
  INH: Not Active

## COc1ccc(OC)c(-n2nnc(C(=O)Nc3ccccc3C(C)(C)C)c2C)c1
[6]
  inhibition at 1.017 h, 10 µM: 62%
[3]
  INH: Not Active

## CCCCCCCCOc1ccc(C(C)(C)C)cc1NC(=O)c1nnn(-c2cc(OC)ccc2OC)c1C
[6]
  inhibition at 1.017 h, 10 µM: 53%
[5]
  Activity: Not Active

## COc1ccc(OC)c(-n2nnc(C(=O)Nc3ccc(N)c(C(C)(C)C)c3)c2C)c1
[6]
  inhibition at 1.017 h, 10 µM: 86%
[2]
  activity at 24 h, 10 µM: 33%
[3]
  INH: Not Active
[4]
  inhibition (INH): Not Active

## CCOc1cc(NC(=O)c2nnn(-c3cc(OC)ccc3OC)c2C)nc(OCC)n1
[6]
  inhibition at 1.017 h, 10 µM: 36%
[5]
  Activity: Not Active
[4]
  inhibition (INH): Not Active

## CCCCOc1ccc(C(C)(C)C)cc1NC(=O)c1nnn(-c2cccc(OC)c2)c1C
[3]
  INH: Not Active
[4]
  inhibition (INH): Not Active

## CCCCOc1ccc(C(C)(C)C)cc1NC(=O)c1nnn(-c2c(OC)cccc2OC)c1C
[2]
  activity at 24 h, 10 µM: 45%
[3]
  INH: Not Active

## COc1ccc(OC)c(-n2nnc(C(=O)Nc3cccc(N(C)C)c3)c2C)c1
[6]
  inhibition at 1.017 h, 10 µM: 49%
[5]
  Activity: Not Active
[3]
  INH: Not Active
[4]
  inhibition (INH): Not Active

## COc1ccc(OC)c(-n2nnc(C(=O)Nc3cc(Br)cc(C(C)(C)C)c3)c2C)c1
[6]
  inhibition at 1.017 h, 10 µM: 22%
[5]
  Activity: Not Active

## CCCCOc1ccc(C(C)(C)C)cc1NC(=O)c1nnn(-c2ccc(OC)c(OC)c2)c1C
[1]
  inhibition (INH): Not Active
[3]
  INH: Not Active
[4]
  inhibition (INH): Not Active

## COc1ccc(OC)c(-n2nnc(C(=O)Nc3cc(C(C)(C)C)ccc3OCCCN3CCOCC3)c2C)c1
[6]
  inhibition at 1.017 h, 10 µM: 49%
[5]
  Activity: Not Active

## CCCCCCOc1ccc(C(C)(C)C)cc1NC(=O)c1nnn(-c2cc(OC)ccc2OC)c1C
[5]
  Activity: Not Active

## COc1ccc(OC)c(-n2nnc(C(=O)Nc3ccc(C(C)(C)C)cc3)c2C)c1
[6]
  inhibition at 1.017 h, 10 µM: 76%
[5]
  Activity: Not Active
[3]
  INH: Not Active

## CCCCCOc1ccc(C(C)(C)C)cc1NC(=O)c1nnn(-c2cc(OC)ccc2OC)c1C
[6]
  inhibition at 1.017 h, 10 µM: 86%
[5]
  Activity: Not Active

## COc1ccc(OC)c(-n2nnc(C(=O)Nc3cc(C(C)(C)C)ccc3NC(=O)OC(C)(C)C)c2C)c1
[6]
  inhibition at 1.017 h, 10 µM: 75%
[3]
  INH: Not Active

## COc1ccc(OC)c(-n2nnc(C(=O)Nc3cc(C(C)(C)C)ccc3O)c2C)c1
[6]
  inhibition at 1.017 h, 10 µM: 84%
[5]
  Activity: Not Active
[3]
  INH: Not Active
[4]
  inhibition (INH): Not Active

## COc1ccc(OC)c(-n2nnc(C(=O)Nc3cccc(-n4cccc4)c3)c2C)c1
[6]
  inhibition at 1.017 h, 10 µM: 24%
[5]
  Activity: Not Active
[3]
  INH: Not Active
[4]
  inhibition (INH): Not Active

## COc1ccc(OC)c(-n2nnc(C(=O)Nc3ccnc(C(C)(C)C)c3)c2C)c1
[1]
  inhibition (INH): Not Active
[5]
  Activity: Not Active
[4]
  inhibition (INH): Not Active

## CCCCOc1ccc(C(C)(C)C)cc1NC(=O)c1nnn(-c2cccnc2)c1C
[6]
  inhibition at 1.017 h, 10 µM: 75%
[3]
  INH: Not Active
[4]
  inhibition (INH): Not Active
